Values quoted from earlier work, collected in patent US9629846B1, “Nutritional supplements for women desiring to become pregnant, and pregnant and nursing women” (Argent Development Group, LLC, priority 2013, dated 2017).

Tests used:
[1] = nutrient depletion
[2] = dietary iron, heme versus non-heme

Compound | effect on folate, magnesium and Vitamin B12 levels [1] | absorption [2]
CN(C)C(=N)N=C(N)N [metformin] | reduce folate, magnesium, and Vitamin B12 levels | 
Heme iron |  | 30%
